ChEMBL document CHEMBL1201862, “PubChem BioAssay data set” (2004)
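All cell lines were grown in 96-well plates and treated with compound for 48 hours. Abbreviation: GI50, concentration required for 50% inhibition of growth.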 The source made the active and inactive calls. No stated cut-off is given here; in the data, active = GI50 up to about 1.1 µM and inactive = higher.

How the values were obtained:
Experiment in all cases: NCI-60 cell line screen, 48 h
[1] = system: KM12
[2] = system: HOP-62
[3] = system: SN12C
[4] = system: NCI-H460
[5] = system: HCC 2998
[6] = system: TK-10
[7] = system: SK-OV-3
[8] = system: SF-539
[9] = system: COLO 205
[10] = system: M14
[11] = system: NCI-H522
[12] = system: OVCAR-4
[13] = system: SW-620
[14] = system: EKVX
[15] = system: UO-31
[16] = system: HCT-15
[17] = system: HL-60
[18] = system: HT-29
[19] = system: SF-295
[20] = system: NCI-H23
[21] = system: SNB-19
[22] = system: SK-MEL-5
[23] = system: OVCAR-3
[24] = system: MDA-N
[25] = system: HCT-116
[26] = system: MDA-MB-435
[27] = system: NCI-H226
[28] = system: SK-MEL-2
[29] = system: OVCAR-5
[30] = system: 786-0
[31] = system: RXF 393
[32] = system: SK-MEL-28
[33] = system: UACC-257
[34] = system: HOP-92
[35] = system: SF-268
[36] = system: ACHN
[37] = system: K562
[38] = system: A549
[39] = system: DU-145
[40] = system: U-251
[41] = system: SR
[42] = system: A498
[43] = system: BT-549
[44] = system: MDA-MB-231
[45] = system: IGROV-1
[46] = system: CCRF-CEM
[47] = system: OVCAR-8
[48] = system: UACC-62
[49] = system: MOLT-4
[50] = system: CAKI-1
[51] = system: Hs-578T
[52] = system: NCI/ADR-RES
[53] = system: LOX IMVI
[54] = system: MCF7
[55] = system: PC-3
[56] = system: T47D

Q: Which results are given for `Cc1ccc2sc3ccc(N)cc3c(=O)c2c1`?
A: GI50 [1]: 20.7 µM (inactive); GI50 [2]: 32.8 µM (inactive); GI50 [3]: 81.1 µM (inactive); GI50 [4]: 41.3 µM (inactive); GI50 [5]: 37.2 µM (inactive); GI50 [6]: > 100 µM (inactive); GI50 [7]: 41.6 µM (inactive); GI50 [8]: 53.2 µM (inactive); GI50 [9]: 42.5 µM (inactive); GI50 [10]: 90.2 µM (inactive); GI50 [11]: 30.3 µM (inactive); GI50 [12]: 63.5 µM (inactive); GI50 [13]: 62.1 µM (inactive); GI50 [14]: 21.1 µM (inactive); GI50 [15]: 29 µM (inactive); GI50 [16]: 24.8 µM; GI50 [17]: 33.7 µM (inactive); GI50 [18]: 30.2 µM (inactive); GI50 [19]: 40.4 µM (inactive); GI50 [20]: 81.8 µM (inactive); GI50 [21]: > 100 µM (inactive); GI50 [22]: 51.9 µM (inactive); GI50 [23]: 32 µM (inactive); GI50 [24]: 26.8 µM (inactive); GI50 [25]: 33.8 µM (inactive); GI50 [26]: 36.9 µM (inactive); GI50 [27]: 82.4 µM (inactive); GI50 [28]: 53.6 µM (inactive); GI50 [29]: > 100 µM (inactive); GI50 [30]: 54.5 µM (inactive); GI50 [31]: 38.5 µM (inactive); GI50 [32]: > 100 µM (inactive); GI50 [33]: > 100 µM (inactive); GI50 [34]: 32.9 µM (inactive); GI50 [35]: > 100 µM (inactive); GI50 [36]: 37.8 µM (inactive); GI50 [37]: 37.6 µM (inactive); GI50 [38]: 54.2 µM (inactive); GI50 [39]: 53 µM (inactive); GI50 [40]: 61.2 µM (inactive); GI50 [41]: 68.2 µM (inactive); GI50 [42]: 22.4 µM (inactive); GI50 [43]: 51.9 µM (inactive); GI50 [44]: 86.7 µM (inactive); GI50 [45]: 33.8 µM (inactive); GI50 [46]: 40.3 µM (inactive); GI50 [47]: > 100 µM (inactive); GI50 [48]: 51.9 µM (inactive); GI50 [49]: 11.4 µM (inactive); GI50 [50]: 30.7 µM (inactive); GI50 [51]: 47.2 µM (inactive); GI50 [52]: 53.2 µM (inactive); GI50 [53]: 28.1 µM (inactive); GI50 [54]: 26.5 µM (inactive); GI50 [55]: 55.1 µM (inactive); GI50 [56]: 14.9 µM (inactive)
